Values belong to the compound of their own block, whether it stands above or below them.
Assays:
[1] = biological target: DNA (cytosine-5)-methyltransferase 3B (Homo sapiens) (UniProt Q9UBC3); assay: Selectivity interaction (Methyltransferase screen (radiometric assays, panel of 8 PRMTs, 21 protein lysine methyltransferases, 3 DNA methyltransferases, and one RNA methyltransferase)) EUB0000272b DNMT3B
[2] = biological target: Macrophage-stimulating protein receptor (Homo sapiens, UniProt Q04912); assay: Selectivity interaction (SelectScreen profiling (Invitrogen)) EUB0000607a MST1R; details: at 2 µM
[3] = biological target: T1, PAN2-PAN3 deadenylation complex subunit PAN3 (Homo sapiens) (UniProt Q58A45); assay: Selectivity interaction (Kinase panel (KiNativ target engagement assay in Jurkat cells)) EUB0001635a PAN3; type: cell-based; details: Selectivity number of off-targets 0.0, Selectivity number of targets 233.0, Source Knowledge https://www.sciencedirect.com/science/article/pii/S2451945619300674?via%3Dihub, at 1 µM
T1 sequence (whole entry): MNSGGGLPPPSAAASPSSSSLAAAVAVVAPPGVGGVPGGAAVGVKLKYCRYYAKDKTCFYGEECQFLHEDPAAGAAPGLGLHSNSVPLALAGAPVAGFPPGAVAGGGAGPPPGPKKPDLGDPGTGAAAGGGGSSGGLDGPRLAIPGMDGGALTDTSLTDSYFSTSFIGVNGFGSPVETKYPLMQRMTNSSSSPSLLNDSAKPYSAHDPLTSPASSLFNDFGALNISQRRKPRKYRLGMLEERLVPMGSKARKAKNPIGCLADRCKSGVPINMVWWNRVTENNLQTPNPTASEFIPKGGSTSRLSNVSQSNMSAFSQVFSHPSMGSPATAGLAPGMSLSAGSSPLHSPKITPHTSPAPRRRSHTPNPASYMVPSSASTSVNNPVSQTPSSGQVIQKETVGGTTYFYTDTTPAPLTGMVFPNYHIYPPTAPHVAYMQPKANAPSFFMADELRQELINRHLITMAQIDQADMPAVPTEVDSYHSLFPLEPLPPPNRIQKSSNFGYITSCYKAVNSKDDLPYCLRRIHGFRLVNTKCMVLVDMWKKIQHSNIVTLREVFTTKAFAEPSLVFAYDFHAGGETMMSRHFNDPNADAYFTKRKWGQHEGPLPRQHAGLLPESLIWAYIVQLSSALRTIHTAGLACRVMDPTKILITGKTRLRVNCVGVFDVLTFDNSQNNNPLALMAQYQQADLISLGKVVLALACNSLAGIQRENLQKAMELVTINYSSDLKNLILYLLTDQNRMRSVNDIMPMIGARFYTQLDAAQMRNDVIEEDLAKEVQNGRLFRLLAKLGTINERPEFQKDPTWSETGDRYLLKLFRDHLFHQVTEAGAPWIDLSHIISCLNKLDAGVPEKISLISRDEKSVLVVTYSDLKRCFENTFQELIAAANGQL

[4] = biological target: T2, Serine/threonine-protein kinase ULK2 (Homo sapiens) (UniProt Q8IYT8); assay: Selectivity interaction (KinomeScan (DiscoverX)) EUB0000618a ULK2; details: at 10 µM
T2 sequence (whole entry): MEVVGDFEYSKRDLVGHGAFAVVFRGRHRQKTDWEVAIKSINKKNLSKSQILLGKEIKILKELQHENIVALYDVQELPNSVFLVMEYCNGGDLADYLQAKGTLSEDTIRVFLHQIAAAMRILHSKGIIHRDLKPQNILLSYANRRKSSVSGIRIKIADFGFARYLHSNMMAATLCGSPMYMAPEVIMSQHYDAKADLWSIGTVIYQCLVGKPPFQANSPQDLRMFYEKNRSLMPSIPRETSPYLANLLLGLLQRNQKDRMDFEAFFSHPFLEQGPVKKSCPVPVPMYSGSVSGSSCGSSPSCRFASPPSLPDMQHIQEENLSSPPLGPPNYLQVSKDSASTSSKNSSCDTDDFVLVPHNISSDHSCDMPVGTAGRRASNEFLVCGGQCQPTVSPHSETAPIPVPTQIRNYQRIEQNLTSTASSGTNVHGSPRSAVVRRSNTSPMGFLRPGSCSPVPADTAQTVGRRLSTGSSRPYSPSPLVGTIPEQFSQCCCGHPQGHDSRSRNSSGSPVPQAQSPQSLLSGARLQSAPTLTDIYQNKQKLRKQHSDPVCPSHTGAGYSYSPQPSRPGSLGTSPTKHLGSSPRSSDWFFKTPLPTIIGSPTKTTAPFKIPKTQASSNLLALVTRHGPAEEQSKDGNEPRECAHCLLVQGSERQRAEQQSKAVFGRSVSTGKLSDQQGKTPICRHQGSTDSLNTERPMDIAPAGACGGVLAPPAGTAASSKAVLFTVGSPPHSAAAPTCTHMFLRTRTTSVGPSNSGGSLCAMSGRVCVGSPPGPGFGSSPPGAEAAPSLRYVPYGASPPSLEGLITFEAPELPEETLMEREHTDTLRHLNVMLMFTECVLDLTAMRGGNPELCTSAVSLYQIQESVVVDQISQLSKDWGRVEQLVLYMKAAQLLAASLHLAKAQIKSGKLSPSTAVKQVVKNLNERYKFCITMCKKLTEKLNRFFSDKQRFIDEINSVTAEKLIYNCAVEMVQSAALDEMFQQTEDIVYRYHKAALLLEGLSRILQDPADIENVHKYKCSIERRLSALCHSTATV

[5] = biological target: MAP kinase-activated protein kinase 2 (Homo sapiens, UniProt P49137); assay: Selectivity interaction (KinomeScan (DiscoverX)) EUB0000618a MAPKAPK2; details: at 10 µM
MAP kinase-activated protein kinase 2, sequence (P49137 whole entry, looked up): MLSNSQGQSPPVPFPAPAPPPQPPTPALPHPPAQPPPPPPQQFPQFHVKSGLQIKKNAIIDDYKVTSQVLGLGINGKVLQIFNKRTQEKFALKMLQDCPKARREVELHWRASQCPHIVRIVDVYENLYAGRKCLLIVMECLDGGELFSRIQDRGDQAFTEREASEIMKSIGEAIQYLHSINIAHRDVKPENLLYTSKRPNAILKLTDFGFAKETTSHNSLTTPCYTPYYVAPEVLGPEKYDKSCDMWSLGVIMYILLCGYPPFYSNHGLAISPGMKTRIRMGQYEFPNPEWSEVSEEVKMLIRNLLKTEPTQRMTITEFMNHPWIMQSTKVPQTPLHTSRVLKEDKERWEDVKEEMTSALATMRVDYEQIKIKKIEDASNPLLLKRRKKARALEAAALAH

Macrophage-stimulating protein receptor, sequence (Q04912 25-304 limits assumed): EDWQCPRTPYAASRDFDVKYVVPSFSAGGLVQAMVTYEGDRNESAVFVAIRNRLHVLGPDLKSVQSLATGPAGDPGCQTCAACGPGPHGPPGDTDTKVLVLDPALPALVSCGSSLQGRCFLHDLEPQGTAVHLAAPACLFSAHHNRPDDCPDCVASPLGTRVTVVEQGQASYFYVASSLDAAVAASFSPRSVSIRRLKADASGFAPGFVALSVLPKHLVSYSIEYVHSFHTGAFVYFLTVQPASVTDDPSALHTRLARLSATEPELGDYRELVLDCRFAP
Macrophage-stimulating protein receptor, sequence (Q04912 310-1400 limits assumed): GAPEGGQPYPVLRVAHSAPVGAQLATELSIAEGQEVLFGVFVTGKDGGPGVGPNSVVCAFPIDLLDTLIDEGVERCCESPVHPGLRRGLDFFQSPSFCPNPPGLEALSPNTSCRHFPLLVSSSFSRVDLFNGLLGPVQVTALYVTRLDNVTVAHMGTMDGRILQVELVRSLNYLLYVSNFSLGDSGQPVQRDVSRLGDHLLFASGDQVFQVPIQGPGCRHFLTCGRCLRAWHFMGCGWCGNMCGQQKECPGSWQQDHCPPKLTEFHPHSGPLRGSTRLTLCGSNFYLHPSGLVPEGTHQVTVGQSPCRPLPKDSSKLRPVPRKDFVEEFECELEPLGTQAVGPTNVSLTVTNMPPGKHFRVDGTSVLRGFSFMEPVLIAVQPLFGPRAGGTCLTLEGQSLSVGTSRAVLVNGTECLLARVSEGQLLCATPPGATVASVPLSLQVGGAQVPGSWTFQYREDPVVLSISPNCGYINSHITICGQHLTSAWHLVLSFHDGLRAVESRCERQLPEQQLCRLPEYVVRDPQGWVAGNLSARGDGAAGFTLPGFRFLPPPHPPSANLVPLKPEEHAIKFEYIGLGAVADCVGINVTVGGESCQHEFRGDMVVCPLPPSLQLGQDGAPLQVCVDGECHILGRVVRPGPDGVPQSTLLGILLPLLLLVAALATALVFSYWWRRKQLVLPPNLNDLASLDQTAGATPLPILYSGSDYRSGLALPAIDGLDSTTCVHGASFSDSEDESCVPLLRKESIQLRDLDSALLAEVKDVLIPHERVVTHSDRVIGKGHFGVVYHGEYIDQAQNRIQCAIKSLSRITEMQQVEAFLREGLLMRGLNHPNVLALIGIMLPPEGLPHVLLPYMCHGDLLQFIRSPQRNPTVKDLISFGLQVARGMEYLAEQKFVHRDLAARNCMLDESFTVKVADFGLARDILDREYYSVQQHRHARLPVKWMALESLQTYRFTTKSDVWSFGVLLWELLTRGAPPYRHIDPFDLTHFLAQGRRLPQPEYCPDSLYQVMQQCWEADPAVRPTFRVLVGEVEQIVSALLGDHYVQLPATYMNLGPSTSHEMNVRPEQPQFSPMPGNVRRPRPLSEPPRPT

% of activity ([1]; at 1 µM): 97.3% | % of activity ([1]; at 10 µM): 102%
SMILES: Cc1cc(C)cc([C@H]2c3cc(C)ccc3NC(=O)CN2C(=O)c2ccc(Br)s2)c1

SMILES: CNC(=O)Nc1ccc(-c2nc(N3CC4CCC(C3)O4)c3cnn(C4CCC5(CC4)OCCO5)c3n2)cc1
% of inhibition [2]: -1%

SMILES: C=CC(=O)Nc1ccc(C(=O)Nc2[nH]nc3c2CN(C(=O)N[C@H](CN(C)C)c2ccccc2)C3(C)C)cc1
% of engagement [3]: -3.3%

SMILES: O[C@H]1CC[C@H](Nc2ncc3nc(Nc4c(F)cc(F)cc4F)n([C@H]4CCOC4)c3n2)CC1
% of control [4]: 89% | % of control [5]: 71%
